Reference: patent US20190231783A1, “PHARMACEUTICAL FORMULATIONS” (Corvus Pharmaceuticals, Inc., priority 2018, published 2019)
Several values for one entry are separate records, joined by “and”; a condition that tells them apart may be missing. Equal entries are not always repeated.

Experiments:
[1] = Assay and related substances by HPLC of nanosuspensions, after milling and on storage; assay type: physicochemical
Description: Assay and Related Substance Testing. Formulations B, D, and E were tested for assay and related substances (RS) to detect the compatibility with the excipients. […] Assay/RS was not determined at TO for this study.

[2] = Assay (% LC) and impurities by HPLC of HME extrudates and tablets, initial and on storage
From the text: “Total impurities” refers to in the common pharmaceutical nomenclature as the total sum of all measured impurities and degradation products from the drug substance and is also referred to as total related substances. […] A gradient method was used with 0.1% (V/V) methanesulfonic acid in water as the first mobile phase and acetonitrile as the second. A C18 column with UV detection at 225 nm was used. Acetonitrile-water mixture was used for dilution of the samples.
Chemical stability. […] The impurity profile of the formulations was compared to the crystalline Formula (III) used in the HME extrudate (Table 2C).
Thermal degradation was closely monitored due to the high processing temperature. […] Selected major impurities in the extrudate that could be attributed to the processing condition were summarized based on the relative retention time (RRT) and shown in Table 2E.
Chemical Characterization of stability samples.

[3] = Assay and impurities of MBP dispersions, initial and on storage at 40° C./75% RH; assay type: physicochemical; details: initial (MBP) or API
Description: Chemical Characterization of samples.
Stability Studies. All initial samples of the MBP were kept in closed 75 mL HDPE bottles and monitored at 40° C. and 75% relative humidity (RH) for up to 3 months. The physical state and chemical stability were reported by XRPD, and assay and impurity. […] The assay and impurity results from the MBP dispersions, stored at 40° C. and 75% relative humidity closed conditions for up to 3 months, and at 40° C. and 75% relative humidity open conditions for up to 2 weeks are reported in the Tables 9D and 9E below.

[4] = Chemical characterization (assay, impurities) of drug-layered beads and capsules, initial and at CRT/ACC storage; assay type: physicochemical
From the text: The amount of the smaller size drug nanoparticles increased as the level of coating increased, with the smaller hump representing the particle size distribution of the drug nanoparticle suspension and the larger hum representing the particle size distribution of the sugar spheres, which largely remained unchanged throughout the process. […] The particle size distribution of the drug nanoparticles on sugar spheres was similar to that of the particle size distribution of drug nanoparticles in the film.
The assay was low, most likely due to the size of the batch (200 grams) since the minimum amount of drug suspension had to be used, which is smaller than the optimum size for the Vector FL1 fluid bed.
The capsules were stored and monitored at controlled room temperature (CRT, 25° C./60% RH) and accelerated conditions (ACC, 40° C./75% RH), and evaluated for chemical characterization up to 3 months, as shown in Table 15C and Table 15D, respectively.

[5] = Particle size distribution by laser diffraction (nanomilled suspensions, cast films, layered beads); assay type: physicochemical; details: crystalline drug particles used to prepare Nanosuspension #001-35 (Table 13A)
Description: “Particle size distribution” or “PSD” or “size distribution” refers to the size of particles present in their relative proportions in a sample, as measured by laser diffraction spectroscopy. In aspects, the particle size distribution refers to the particle size distribution of all the drug particles in the composition. The particle size distribution of a sample is measured by laser diffraction spectroscopy. Laser diffraction spectrometers are commercially available as, e.g., MASTERSIZER® 3000 from Malvern Instruments Ltd, and HORIBA® LA-950 by Horiba Instruments, Inc., Irvine Calif. For laser diffraction spectroscopy, particle size distribution is generally described by D values, such as D90. In aspects, the laser diffraction spectroscopy can be analyzed by the Fraunhofer theory. In aspects, the laser diffraction spectroscopy can be analyzed by the Mie scattering theory. In aspects, the laser diffraction spectroscopy can be analyzed by a combination of the Fraunhofer theory and the Mie scattering theory.
Particle size measurements were obtained using water as dispersing media in the fraction cell of the laser diffraction particle size analyzer and analyzed using a refractive index of 1.60+0.01i in water.
Samples at different time points were withdrawn and checked for particle size distribution by laser diffraction and appearance by optical microscopy.

[6] = Dissolution of un-milled vs nano-milled Formula (III) suspensions (sink and non-sink); assay type: physicochemical
Description: Dissolution at non-sink conditions was tested to further compare un-milled and milled Formula (III) formulations.

[7] = Solubility / kinetic solubility in pH 6.8 phosphate buffer; assay type: physicochemical; details: 37 °C, thermodynamic from solid
Description: Kinetic solubility is a supersaturated or metastable and time-dependent state as opposed to true time-independent equilibrium solubility. […] The bottle was rotated at 50 rpm up to 4 hours at 37° C. Samples were collected at 5, 10, 15, 20, 25, 30, 45, 60, 75, 90, 120, 180, and 240 minutes time points. The samples were filtered using […] PVDF filter and diluted with acetonitrile in 1:1 ratio immediately. The samples were analyzed by HPLC. The concentration of phosphate buffer had only a minor effect on the solubility of the DS or the amorphous solid dispersion (extrudate), and the surfactant made it more difficult to distinguish the enhancement of the solubility.
Solubility Studies. […] Amorphous solid dispersions with 30% drug loading of Formula III with three different stabilizing polymers were evaluated. In particular, excess sample (either Formula (III) milled extrudate or Formula (III) as a control) was added into the bottle containing 120 mL of each media to ensure saturation.
At the same time, SLS diminished the discrimination between the crystalline and amorphous forms. Thus it is advisable to avoid SLS in the dissolution media for kinetic solubility studies.

[8] = initial (formulation) or API as used, listed as API

Cc1ccc(-c2nc(N)nc3c2nnn3Cc2cccc(COC3CCOC3)n2)o1 (stereo not shown) [Formula (III)]
Potency (Assay %) ([1]; T = 0 (formulation) or API): 100%
% Impurity by RRT 0.80 ([1]; T = 0 or API): 0.2%
% Impurity by RRT 0.94 ([1]; T = 0 or API): 0.2%
% Impurity by RRT 10.6 ([1]; T = 0 or API): 0.2%
Total Impurity % ([1]; T = 0 or API): 0.6%
Related substances (RS) of the standard ([1]; standard, unmilled): 0.6%
Total Impurities ([2]; initial (Table 8E)): 0.8%
Total Impurities % [2, 8]: 0.82% and 0.818% and 0.80%
Total Specified Impurities % [2, 8]: 0.46% and 0.462%
Total Impurity % [3]: 0.82%
Total Specified Impurity % [3]: 0.46%
Total Impurities ([4]; API): 0.8%
Total Impurities % ([4]; initial chemical characterization of the beads (Table 14C)): 0.80%
Particle Size Distribution D10 [5]: 73 nm
Particle Size Distribution D50 [5]: 169 nm
Particle Size Distribution D90 [5]: 714 nm
Solubility dependence on pH [6]: increases significantly below pH 3
Time to complete dissolution ([6]; acid medium, sink condition): 45 min
Solubility of a 100 mg dose in 900 mL phosphate buffer at pH 6.8 ([6]; non-sink condition): not fully soluble
solubility at 240 min ([7]; phosphate buffer with sodium lauryl sulphate, pH 6.8, aqueous with cosolvent or surfactant or cyclodextrin, 10 mM Phosphate buffer, pH 6.8, 0.5% SLS): 419 µg/mL
solubility at 240 min ([7]; phosphate buffer with sodium lauryl sulphate, pH 6.8, aqueous with cosolvent or surfactant or cyclodextrin, 10 mM Phosphate buffer, pH 6.8, 1.0% SLS): 593 µg/mL
solubility at 240 min ([7]; phosphate buffer with sodium lauryl sulphate, pH 6.8, aqueous with cosolvent or surfactant or cyclodextrin, 50 mM Phosphate buffer, pH 6.8, 0.5% SLS): 386 µg/mL
solubility at 240 min ([7]; phosphate buffer with sodium lauryl sulphate, pH 6.8, aqueous with cosolvent or surfactant or cyclodextrin, 50 mM Phosphate buffer, pH 6.8, 1.0% SLS): 627 µg/mL
solubility at 240 min ([7]; phosphate buffer, pH 6.8, aqueous buffer, 10 mM Phosphate buffer, pH 6.8, No Surfactant): 23 µg/mL
solubility at 240 min ([7]; phosphate buffer, pH 6.8, aqueous buffer, 50 mM Phosphate buffer, pH 6.8, No Surfactant): 19 µg/mL
